Molecules are shown by their SMILES.

The subject of one assay is Dengue-2 (Strain New Guinea C). Put plainly: Viral yield assay in Vero cells. The assay is classed as cell-based. The note with it: Dengue virus, Vero, 48 h, read-out: Activity (anti-dengue 2 viral activity, EC50 class). The protocol:
Compounds that were active in the primary screen were tested for activity in viral yield assays. […] Vero cells in 12-well plates were infected with dengue-2 virus at a multiplicity of infection (MOI) of 0.1, treated with compound (or DMSO as a control), incubated at 37° C., harvested 48 hours post infection and titered on Vero cells as described above. The EC50 was calculated through ExcelFit. Activities against other serotypes of dengue virus were determined in a similar way.
`O=C(Nc1ccc(-c2nc3ccccc3s2)cc1)c1ccc(S(=O)(=O)N2CCCCC2)cc1` [Compound 17, N-(4-Benzothiazol-2-yl-phenyl)-4-(piperidine-1-sulfonyl)-benzamide]: the EC50 fell in the range of 10000 to 25000 nM.

Staying with this assay, now noted: Dengue virus; Vero cells, MOI 0.1, harvested 48 hours post infection; read-out: Activity (anti-dengue 2 viral activity, EC50 class).
As to `COc1ccc(C(=O)Nc2ccc(-c3nc4ccccc4s3)c(O)c2)cc1` [Compound 1, N-(4-Benzothiazol-2-yl-3-hydroxy-phenyl)-4-methoxy-benzamide], the EC50 was less than 1000 nM. The same measure, in the same setting: the value for `O=C(Nc1ccc(-c2nc3ccccc3s2)cc1)c1ccc2c(c1)OCCO2` [Compound 2, 2,3-Dihydro-benzo[1,4]dioxine-6-carboxylic acid (4-benzothiazol-2-yl-phenyl)-amide] was less than 1000 nM.

Regarding `COc1ccccc1C(=O)Nc1cccc(-c2nc3ccccc3s2)c1` [Compound 4, N-(3-Benzothiazol-2-yl-phenyl)-2-methoxy-benzamide], the EC50 was less than 1000 nM. Regarding `COc1ccc(C(=O)Nc2ccc(-c3nc4ccccc4s3)c(Cl)c2)cc1OC` [Compound 5, N-(4-Benzothiazol-2-yl-3-chloro-phenyl)-3,4-dimethoxy-benzamide], the EC50 was less than 1000 nM. The same measure, in the same setting: with `COc1ccc(C(=O)Nc2ccc(-c3nc4ccccc4s3)c(Cl)c2)cc1` [Compound 6, N-(4-Benzothiazol-2-yl-3-chloro-phenyl)-4-methoxy-benzamide] the figure was less than 1000 nM; with `Cc1ccc2nc(-c3ccc(NC(=O)c4ccc(N(C)C)cc4)cc3)sc2c1` [Compound 7, 4-Dimethylamino-N-[4-(6-methyl-benzothiazol-2-yl)-phenyl]-benzamide], less than 1000 nM; with `Cc1ccc(C(=O)O)c(C(=O)Nc2ccc(-c3nc4ccc(C)cc4s3)cc2)c1` [Compound 8, 4-Methyl-N-[4-(6-methyl-benzothiazol-2-yl)-phenyl]-phthalamic acid], less than 1000 nM. On the same count and under the same terms, with `Cc1ccc2nc(-c3ccc(NC(=O)c4cccc(S(=O)(=O)N5CCN(C)CC5)c4)cc3)sc2c1` [Compound 9, N-[4-(6-Methyl-benzothiazol-2-yl)-phenyl]-3-(4-methyl-piperazine-1-sulfonyl)-benzamide] the figure was less than 1000 nM; with `CN(C)c1ccccc1C(=O)Nc1ccc(-c2nc3ccccc3s2)cc1` [Compound 10, N-(4-Benzothiazol-2-yl-phenyl)-2-dimethylamino-benzamide], less than 1000 nM.

In the case of `COc1ccccc1C(=O)Nc1ccc(-c2nc3ccccc3s2)c(Cl)c1` [Compound 11, N-(4-Benzothiazol-2-yl-3-chloro-phenyl)-2-methoxy-benzamide], the EC50 is less than 1000 nM. Consider `Cc1cccc(C(=O)Nc2cccc(-c3nc4ccccc4s3)c2)c1` [Compound 12, N-(3-Benzothiazol-2-yl-phenyl)-3-methyl-benzamide], for which the EC50 was 1000 to 10000 nM.

Take `COc1cccc(OC)c1C(=O)Nc1cccc(-c2nc3ccccc3s2)c1` [Compound 13, N-(3-Benzothiazol-2-yl-phenyl)-2,6-dimethoxy-benzamide]: the half-maximal effective concentration (EC50) was 1000 to 10000 nM. Same read-out and setting: with `COc1ccc(C(=O)Nc2ccccc2-c2nc3ccccc3s2)cc1OC` [Compound 14, N-(2-Benzothiazol-2-yl-phenyl)-3,4-dimethoxy-benzamide] the figure was 1000 to 10000 nM. The same measure, in the same setting: with `COc1ccc(-c2nc3ccccc3s2)cc1NC(=O)c1ccc([N+](=O)[O-])cc1Cl` [Compound 15, N-(5-Benzothiazol-2-yl-2-methoxy-phenyl)-2-chloro-4-nitro-benzamide] the figure was 1000 to 10000 nM. As to `COc1c(C)cccc1C(=O)Nc1ccccc1-c1nc2ccccc2s1` [Compound 16, N-(2-Benzothiazol-2-yl-phenyl)-2-methoxy-3-methyl-benzamide], the EC50 lay in the range of 1000 to 10000 nM.

Regarding `O=C(Nc1cccc(-c2nc3ccccc3s2)c1)c1ccc(S(=O)(=O)N2CCCC2)cc1` [Compound 20, N-(3-Benzothiazol-2-yl-phenyl)-4-(pyrrolidine-1-sulfonyl)-benzamide], the EC50 fell in the range of 10000 to 25000 nM. Same read-out and setting: the value for `O=C(Nc1ccc(-c2nc3ccccc3s2)cc1)c1ccccc1F` [Compound 21, N-(4-Benzothiazol-2-yl-phenyl)-2-fluoro-benzamide] was 10000 to 25000 nM.

(Values after US8993604B2, “Treatment and prevention of dengue virus infections” (Siga Technologies, Inc., priority 2009, dated 2015).)
